Reference: patent publication US9365522B2, “Pyrazole amide derivative” (AMGEN INC., priority 2015, dated 2016)

Molecular target: T1, ligand binding domain of human ROR gamma (Homo sapiens, UniProt P51449)
T1 construct: NM_001001523; expressed in transfected cells; host or cells: HEK293T
T1 sequence (P51449 247-497 isoform P51449-2): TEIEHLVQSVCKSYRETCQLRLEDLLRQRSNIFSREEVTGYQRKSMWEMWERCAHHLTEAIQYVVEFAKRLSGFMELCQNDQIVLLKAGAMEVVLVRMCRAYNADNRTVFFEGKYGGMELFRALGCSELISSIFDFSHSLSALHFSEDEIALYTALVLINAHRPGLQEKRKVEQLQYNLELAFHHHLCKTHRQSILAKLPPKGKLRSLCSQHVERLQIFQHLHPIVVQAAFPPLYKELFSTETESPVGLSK
Assay: ROR gamma reporter gene assay (GAL4-RORγ LBD luciferase, Dual-Glo)
Type: cell-based
Conditions: HEK293T cells transfected with pM-ROR gamma, 8 concentrations 3.5 nM to 10.5 μM, 24 h incubation; read-out: result (pIC50, inhibition of RORγ transcriptional activity) (converted)
Summary of the method: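 Inhibition of RORγ-driven transcription was measured in HEK293T cells expressing a GAL4 fusion of the human RORγ LBD (aa 247-497), with renilla luciferase as internal control. Cells in 10% charcoal-stripped serum received compound (3.5 nM–10.5 μM) for 24 h.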

IC50 | SMILES
32400 pM | O=C(CN(C(=O)c1cnn([C@H]2CC[C@H](C(=O)O)CC2)c1C(F)(F)F)C1CC2CCC1C2)c1c(Cl)cncc1Cl (stereo partly drawn) [Example 215, trans-4-(4-(3-bicyclo[2.2.1]heptanyl-(2-(3,5-dichloropyridin-4-yl)-2-oxoethyl)carbamoyl)-5-(trifluoromethyl)pyrazol-1-yl)cyclohexane-1-carboxylic acid]
148000 pM | O=C(CN(Cc1ncc(Cl)s1)C(=O)c1cnn([C@H]2CC[C@H](C(=O)O)CC2)c1C(F)(F)F)c1c(Cl)cncc1Cl [Example 168, trans-4-(4-((5-chloro-1,3-thiazol-2-yl)methyl-(2-(3,5-dichloropyridin-4-yl)-2-oxoethyl)carbamoyl)-5-(trifluoromethyl)pyrazol-1-yl)cyclohexane-1-carboxylic acid]
> 1e+07 pM | O=C(CN(Cc1cc(F)cc(F)c1)C(=O)c1cnn([C@H]2CC[C@H](C(=O)O)CC2)c1C(F)(F)F)c1cc[nH]n1 [Example 8, trans-4-(4-((3,5-difluorobenzyl)(2-oxo-2-(1H-pyrazol-3-yl)ethyl)carbamoyl)-5-(trifluoromethyl)-1H-pyrazol-1-yl)cyclohexanecarboxylic acid]
28800 pM | Cc1[nH]c2cccc(Cl)c2c1CCN(C(=O)c1cnn([C@H]2CC[C@](C)(C(=O)O)CC2)c1C(F)(F)F)[C@H]1C[C@@H]2[C@H](C1)C2(C)C [Example 392, trans-4-(4-((2-(4-chloro-2-methyl-1H-indol-3-yl)ethyl)((1R,3r,5S)-6,6-dimethylbicyclo[3.1.0]hexan-3-yl)carbamoyl)-5-(trifluoromethyl)-1H-pyrazol-1-yl)-1-methylcyclohexanecarboxylic acid]
1.91e+06 pM | O=C(CN(Cc1ccccn1)C(=O)c1cnn([C@H]2CC[C@H](C(=O)O)CC2)c1C(F)(F)F)c1c(Cl)cncc1Cl [Example 103, trans-4-(4-((2-(3,5-dichloropyridin-4-yl)-2-oxoethyl)-(pyridin-2-ylmethyl)carbamoyl)-5-(trifluorornethyl)pyrazol-1-yl)cyclohexane-1-carboxylic acid]
< 3470 pM | CC12CCC(CN(CC(=O)c3c(Cl)cc(Cl)cc3Cl)C(=O)c3cnn([C@H]4CC[C@](C)(C(=O)O)CC4)c3C(F)(F)F)(CC1)C2 [Example 275, trans-4-(4-((1-methyl-4-bicyclo[2.2.1]heptanyl)methyl-(2-oxo-2-(2,4,6-trichlorophenyl)ethyl)carbamoyl)-5-(trifluoromethyl)pyrazol-1-yl)-1-methylcyclohexane-1-carboxylic acid]
162000 pM | C[S+](=O)([O-])[C@H]1CC[C@@H](n2ncc(C(=O)N(CC(=O)c3c(Cl)cncc3Cl)Cc3ccc(F)cc3)c2C(F)(F)F)CC1 [Example 86, N-(2-(3,5-dichloropyridin-4-yl)-2-oxoethyl)-N-(4-fluorobenzyl)-1-(cis-4-(methylsulfonyl)cyclohexyl)-5-(trifluoromethyl)-1H-pyrazole-4-carboxamide]
245000 pM | Cc1cncc(C)c1C(=O)CN(Cc1cc(F)cc(F)c1)C(=O)c1cnn([C@H]2CC[C@H](C(=O)O)CC2)c1C(F)(F)F [Example 52]
60300 pM | CC(C1CC2(CC2)C1)N(CC(=O)c1c(Cl)cncc1Cl)C(=O)c1cnn([C@H]2CC[C@H](C(=O)O)CC2)c1C(F)(F)F (stereo partly drawn) [Example 204, trans-4-(4-((2-(3,5-dichloropyridin-4-yl)-2-oxoethyl)-(1-spiro[2.3]hexan-5-ylethyl)carbamoyl)-5-(trifluoromethyl)pyrazol-1-yl)cyclohexane-1-carboxylic acid]
1.17e+06 pM | O=C(CN(Cc1nc(Cl)cs1)C(=O)c1cnn([C@H]2CC[C@H](C(=O)O)CC2)c1C(F)(F)F)c1c(Cl)cncc1Cl [Example 165, trans-4-(4-((4-chloro-1,3-thiazol-2-yl)methyl-(2-(3,5-dichloropyridin-4-yl)-2-oxoethyl)carbamoyl)-5-(trifluoromethyl)pyrazol-1-yl)cyclohexane-1-carboxylic acid]
28800 pM | O=C(c1cnn([C@H]2CC[C@H](C(=O)O)CC2)c1C(F)(F)F)N(Cc1ccc(F)cc1)CC(F)(F)c1c(Cl)cccc1Cl [Example 96, trans-4-(4-((2-(2,6-dichlorophenyl)-2,2-difluoroethyl)-((4-fluorophenyl)methyl)carbamoyl)-5-(trifluoromethyl)pyrazol-1-yl)cyclohexane-1-carboxylic acid]
6030 pM | CC12CCC(CN(CC(=O)c3c(Cl)cc(Cl)cc3Cl)C(=O)c3cnn([C@H]4CC[C@](C)(C(=O)O)CC4)c3C(F)(F)F)(CC1)O2 [Example 260, trans-4-(4-((1-methyl-7-oxabicyclo[2.2.1]heptan-4-yl)methyl-(2-oxo-2-(2,4,6-trichlorophenyl)ethyl)carbamoyl)-5-(trifluoromethyl)pyrazol-1-yl)-1-methylcyclohexane-1-carboxylic acid]
22400 pM | CC1(C)[C@@H]2C[C@H](N(CC(=O)c3c(Cl)cncc3Cl)C(=O)c3cnn([C@H]4CC[C@H](C(=O)O)CC4)c3C(F)(F)F)C[C@@H]21 [Example 211, trans-4-(4-((2-(3,5-dichloropyridin-4-yl)-2-oxoethyl)-((1R,3r,5S)-6,6-dimethyl-3-bicyclo[3.1.0]hexanyl)carbamoyl)-5-(trifluoromethyl)pyrazol-1-yl)cyclohexane-1-carboxylic acid]
41700 pM | CC(C)=CCN(CC(=O)c1c(Cl)cncc1Cl)C(=O)c1cnn([C@H]2CC[C@](C)(C(=O)O)CC2)c1C(F)(F)F [Example 314, trans-4-(4-((2-(3,5-dichloropyridin-4-yl)-2-oxoethyl)-(3-methylbut-2-enyl)carbamoyl)-5-(trifluoromethyl)pyrazol-1-yl)-1-methylcyclohexane-1-carboxylic acid]
4790 pM | Cc1cc(Cl)c(C(=O)CN(Cc2cc(F)cc(F)c2)C(=O)c2cnn([C@H]3CC[C@H](C(=O)O)CC3)c2C(F)(F)F)c(Cl)c1 [Example 137, trans-4-(4-((2-(2,6-dichloro-4-methylphenyl)-2-oxoethyl)-((3,5-difluorophenyl)methyl)carbamoyl)-5-(trifluoromethyl)pyrazol-1-yl)cyclohexane-1-carboxylic acid]
66100 pM | CC(C)(C)CN(CC(=O)c1c(F)cccc1Cl)C(=O)c1cnn([C@H]2CC[C@](C)(C(=O)O)CC2)c1C(F)(F)F [Example 297, trans-4-(4-((2-(2-chloro-6-fluorophenyl)-2-oxoethyl)-(2,2-dimethylpropyl)carbamoyl)-5-(trifluoromethyl)pyrazol-1-yl)-1-methylcyclohexane-1-carboxylic acid]
107000 pM | CC(F)(F)c1c(C(=O)N(CC(=O)c2c(Cl)cncc2Cl)Cc2ccc(F)cc2)cnn1[C@H]1CC[C@H](C(=O)O)CC1 [Example 84, trans-4-(4-((2-(3,5-dichloropyridin-4-yl)-2-oxoethyl)(4-fluorobenzyl)carbamoyl)-5-(1,1-difluoroethyl)-1H-pyrazol-1-yl)cyclohexanecarboxylic acid]
102000 pM | COc1cccc(Cl)c1[C@@H](O)CN(CC(C)(C)C)C(=O)c1cnn([C@H]2CC[C@](C)(C(=O)O)CC2)c1C(F)(F)F [Example 356, trans-4-(4-(((2R)-2-(2-chloro-6-methoxyphenyl)-2-hydroxyethyl)-(2,2-dimethylpropyl)carbamoyl)-5-(trifluoromethyl)pyrazol-1-yl)-1-methylcyclohexane-1-carboxylic acid]
